Read-outs that look alike come from different tables or passages of the source.
Experiments:
A549 = A549 assay: screening of cancer cell growth inhibiting compound; format: cell-based; conditions: Homo sapiens, A549 cells, read-out: A549 IC50
Procedure: Screening of Cancer Cell Growth Inhibiting Compound
A cell suspension solution (RERF-LC-AI, A549: 1×10^4/ml, MRC5: 3×10^4/ml and 1×10^5/ml) adjusted to an appropriate concentration with D-MEM (hereinafter, referred to as a culture solution and manufactured by Nacalai Tesque Inc.) supplemented with 10% FBS (HyClone) was added to the wells of a 96-well plate (hereinafter, well plate) at a rate of 100 μL/well and incubated in a CO2 incubator at 37° C. for a day. […] Next, cells were added to each well of the well plate prepared and the above compound dilution solution was added at a rate of 100 μL/well to obtain 200 μL/well. Thereafter, the cells were incubated in the CO2 incubator at 37° C. for further three days. To each well of the well plate, 10 μL of a WST-8 kit (Kishida Chemical Co., Ltd.) solution for counting the number of cells was added and a color reaction was performed in the CO2 incubator for 1 to 4 hours. After the absorbance at 450 nm (reference wavelength: 620 nm) was measured by a microplate reader, suppressing action of the test substance was calculated based on the absorbance value in the absence of a test substance.

TTK = molecular target: T1, TTK (Homo sapiens, UniProt P33981); assay: TTK assay: screening of TTK kinase activity suppressing action using p38 MAPK peptide; format: biochemical; conditions: read-out: TTK IC50
T1 sequence (P33981 1-857): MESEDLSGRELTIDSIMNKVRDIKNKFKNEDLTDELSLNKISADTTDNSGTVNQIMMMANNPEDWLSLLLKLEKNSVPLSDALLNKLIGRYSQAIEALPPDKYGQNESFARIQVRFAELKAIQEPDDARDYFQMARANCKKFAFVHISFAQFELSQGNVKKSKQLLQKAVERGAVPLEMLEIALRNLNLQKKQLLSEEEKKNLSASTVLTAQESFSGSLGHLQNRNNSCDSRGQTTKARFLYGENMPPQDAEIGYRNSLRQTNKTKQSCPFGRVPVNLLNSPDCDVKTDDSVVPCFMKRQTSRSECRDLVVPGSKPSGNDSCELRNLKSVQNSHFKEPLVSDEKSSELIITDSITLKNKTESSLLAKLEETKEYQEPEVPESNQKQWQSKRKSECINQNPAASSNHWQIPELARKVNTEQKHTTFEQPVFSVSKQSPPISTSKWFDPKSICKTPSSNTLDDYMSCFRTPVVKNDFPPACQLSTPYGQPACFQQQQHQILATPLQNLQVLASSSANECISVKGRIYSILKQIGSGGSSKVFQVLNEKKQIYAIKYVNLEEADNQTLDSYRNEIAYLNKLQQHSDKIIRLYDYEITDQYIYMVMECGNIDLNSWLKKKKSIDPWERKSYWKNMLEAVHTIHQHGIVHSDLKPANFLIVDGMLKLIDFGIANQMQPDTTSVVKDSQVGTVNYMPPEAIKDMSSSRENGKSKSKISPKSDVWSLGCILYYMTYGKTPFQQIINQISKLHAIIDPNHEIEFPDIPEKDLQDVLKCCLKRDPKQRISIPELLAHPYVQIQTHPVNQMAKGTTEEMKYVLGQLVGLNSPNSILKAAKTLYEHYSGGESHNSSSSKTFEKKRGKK
Procedure: Screening of a compound having a TTK kinase activity suppressing action using p38 MAPK peptide
A test substance 1.0 μL (solvent: 10% (v/v) DMSO), TTK solution 5 μL (composition: 4 μg/ml TTK, 25 mM Tris-HCl, pH7.5, 5 mM β-glycerophosphate, 2 mM DTT, 0.1 mM Na3VO4, 5 mM MgCl2, 0.1% (w/v)BSA) and a substrate solution 5 μL (composition: 60 μM p38 MAPK peptide, 60 μM ATP, 25 mM Tris-HCl, pH7.5, 5 mM β-glycerophosphate, 2 mM DTT, 0.1 mM Na3VO4, 5 mM MgCl2, 0.1% (w/v)BSA) were mixed in the wells of a 384-well microtiter plate (manufactured by Corning Incorporated) made of polypropylene and loaded in a constant temperature and humidity room.
From the resultant mixture, an aliquot of 1.7 μL was taken out and mixed with the reaction terminating solution (60 μl) in the wells of a 384-well microtiter plate (manufactured by Corning Incorporated) made of polypropylene. Thereafter, 40 μL of the mixture was transferred to a 384-well black NeutrAvidin plate (PIERCE), sealed and incubated under room temperature for 30 minutes. […] Similarly, the plate was washed with TTBS (100 μL) three times, 40 μl of a secondary antibody solution (Eu-N1 labeled Anti-mouse IgG (Perkin Elmer, #AD0124)) was added and incubated under room temperature for 30 minutes. After the plate was washed with TTBS (100 μL) five times, 40 μL of an enhance solution (Perkin Elmer) was added and incubated under room temperature for 5 minutes. […] Based on the fluorescence value in the absence of a test substance, the suppression activity of a test substance was measured.

Compound | IC50 (A549; 72 h, three days, WST-8) | IC50 (TTK; p38 MAPK peptide substrate) | IC50 (A549; values given as IC50 intervals) | IC50 (TTK)
Cc1cc(C#N)ccc1-c1cc(NCC2CCOCC2)c2ncc(-c3ccc(C(=O)NC4CC4)cc3)n2n1 [Example 2-202] |  |  | 50 to 500 nM | 3.5 nM
Cc1cccc(Oc2cc(NCC3CCOCC3)c3ncc(-c4ccc(C(=O)NC5CC5)cc4)n3n2)c1 [Example 2-102] | 50 to 500 nM | 3 nM |  | 
O=C(NC1CC1)c1ccc(-c2cnc3c(NCc4nccs4)cc(NC4CCCCC4)nn23)cc1 [Example 2-160] | 50 to 500 nM | 3.1 nM |  | 
N#Cc1ccc(-c2cc(NCC3CCOCC3)c3ncc(-c4ccc(C(=O)NC5CC5)cc4)n3n2)cn1 [Example 2-199] |  |  | 50 to 500 nM | 7.4 nM
O=C(NC1CC1)c1ccc(-c2cnc3c(NCC4CCOCC4)cc(Oc4ccc(Cl)cc4)nn23)cc1 [Example 2-93] | 50 to 500 nM | 3.3 nM |  | 
Cc1ccccc1Oc1cc(NCC2CCOCC2)c2ncc(-c3ccc(C(=O)NC4CC4)cc3)n2n1 [Example 2-101] | 50 to 500 nM | 2.5 nM |  | 
N#Cc1ccc(-c2cn3c(-c4ccc(C(=O)NC5CC5)cc4)cnc3c(NCCOCCO)n2)cc1 [Example 1-217] | 1000 to 10000 nM | 48.9 nM |  | 
C#CC1(Nc2cc(NCC3CCOCC3)c3ncc(-c4ccc(C(=O)NC5CC5)cc4)n3n2)CCCCC1 [Example 2-77] | 500 to 1000 nM | 21.3 nM |  | 
Cn1cncc1CNc1cc(NC2CCCCC2)nn2c(-c3ccc(C(=O)NC4CC4)cc3)cnc12 [Example 2-148] | 500 to 1000 nM | 3.9 nM |  | 
CN1CCC(CNc2cc(NC3CCCCC3)nn3c(-c4ccc(C(=O)NC5CC5)cc4)cnc23)CC1 [Example 2-126] | 50 to 500 nM | 23.6 nM |  | 
O=C(NC1CC1)c1ccc(-c2cnc3c(NCCSCCO)cc(NC4CCCCC4)nn23)cc1 [Example 2-136] | 50 to 500 nM | 7.3 nM |  | 
O=C(NC1CC1)c1ccc(-c2cnc3c(NCCCCO)cc(NC4CCCCC4)nn23)cc1 [Example 2-130] | 50 to 500 nM | 9.7 nM |  | 
O=C(NC1CC1)c1ccc(-c2cnc3c(NCC4CCOCC4)cc(NC4CCCC4)nn23)cc1Cl [Example 2-230] |  |  | ≤ 50 nM | 4.3 nM
O=C(NC1CC1)c1ccc(-c2cnc3c(NCC4CCOCC4)cc(NC4CCCC4)nn23)c(Cl)c1 [Example 2-231] |  |  | 50 to 500 nM | 5.7 nM
Cc1cccc(C)c1Oc1cc(NCC2CCOCC2)c2ncc(-c3ccc(C(=O)NC4CC4)cc3)n2n1 [Example 2-107] | 50 to 500 nM | 34.4 nM |  | 
O=C(NC1CC1)c1ccc(-c2cnc3c(NCC4CCOCC4)cc(Oc4cccc(Cl)c4)nn23)cc1 [Example 2-114] | 50 to 500 nM | 2.5 nM |  | 
CC(C)ONc1cc(NC2CCCCC2)nn2c(-c3ccc(C(=O)NC4CC4)cc3)cnc12 [Example 2-161] | 500 to 1000 nM | 5.6 nM |  | 
N#Cc1ccc(-c2cn3c(-c4ccc(C(=O)NC5CC5)cc4)cnc3c(NCCC3CCOCC3)n2)cc1 [Example 1-221] | 50 to 500 nM | 9.5 nM |  | 
COc1ccccc1Oc1cc(NCC2CCOCC2)c2ncc(-c3ccc(C(=O)NC4CC4)cc3)n2n1 [Example 2-95] | 50 to 500 nM | 2.5 nM |  | 
N#CCCNc1nc(-c2ccc(C#N)cc2)cn2c(-c3ccc(C(=O)NC4CC4)cc3)cnc12 [Example 1-213] | 50 to 500 nM | 16.1 nM |  | 
CC(C)(O)CNc1nc(-c2ccc(C#N)cc2)cn2c(-c3ccc(C(=O)NC4CC4)cc3)cnc12 [Example 1-235] | 50 to 500 nM | 12.8 nM |  | 
O=C(NC1CC1)c1ccc(-c2cnc3c(NCc4cccs4)cc(NC4CCCCC4)nn23)cc1 [Example 2-151] | 50 to 500 nM | 3.1 nM |  | 
O=C(NC1CC1)c1ccc(-c2nnc3c(NCC4CCOCC4)cc(NC4CCCC4)nn23)cc1 [Example 3-3, 4-(6-(Cyclopentylamino)-8-((tetrahydro-2H-pyran-4-yl)methylamino)-[1,2,4]triazolo[4,3-b]pyridazin-3-yl)-N-cyclopropylbenzamide] |  |  | 1000 to 10000 nM | 145 nM
Cc1cc(-c2cnc3c(NCC4CCOCC4)cc(NC4CCCC4)nn23)ccc1C(=O)NC1CC1 [Example 2-232] |  |  | 50 to 500 nM | 2.8 nM
Nc1ccc(Oc2cc(NCC3CCOCC3)c3ncc(-c4ccc(C(=O)NC5CC5)cc4)n3n2)cc1 [Example 2-92] | 50 to 500 nM | 4 nM |  | 

Next, values leading:

IC50 (A549; 72 h, three days, WST-8) | IC50 (TTK; p38 MAPK peptide substrate) | IC50 (A549; values given as IC50 intervals) | IC50 (TTK) | Compound
1000 to 10000 nM | 13.9 nM |  |  | CC(=O)NCC1CN(c2cc(NCC3CCOCC3)c3ncc(-c4ccc(C(=O)NC5CC5)cc4)n3n2)CCO1 (centres unmarked) [Example 2-48]
50 to 500 nM | 13.4 nM |  |  | O=C(NC1CC1)c1ccc(-c2cnc3c(NCC4CCOCC4)cc(N4CCC(C(F)(F)F)CC4)nn23)cc1 [Example 2-51]
50 to 500 nM | 8.8 nM |  |  | N#CC1CCN(c2cc(NCC3CCOCC3)c3ncc(-c4ccc(C(=O)NC5CC5)cc4)n3n2)CC1 [Example 2-23]
50 to 500 nM | 3.1 nM |  |  | O=C(NC1CC1)c1ccc(-c2cnc3c(NCC4CCOCC4)cc(N4CCN(C(=O)C5CC5)CC4)nn23)cc1 [Example 2-47]
50 to 500 nM | 8.4 nM |  |  | O=C(NC1CC1)c1ccc(-c2cnc3c(NCC4CCOCC4)cc(N4CCCCC4)nn23)cc1 [Example 2-12]
50 to 500 nM | 5.9 nM |  |  | O=C(NC1CC1)c1ccc(-c2cnc3c(NCC4CCOCC4)cc(NC4CCOCC4)nn23)cc1 [Example 2-13]
500 to 1000 nM | 17.8 nM |  |  | O=C(NC1CC1)c1ccc(-c2cnc3c(NCC4CCOCC4)cc(N4CCOC(CO)C4)nn23)cc1 (centres unmarked) [Example 2-49]
 |  | 50 to 500 nM | 8.2 nM | O=C(NC1CC1)c1ccc(-c2cnc3c(NCC4CCOCC4)cc(C=C4CCCC4)nn23)cc1 [Example 2-209]
 |  | 1000 to 10000 nM | 13.9 nM | O=C(NC1CC1)c1ccc(-c2cnc3c(NCC4CCOCC4)c(F)c(OC4CCCC4)nn23)cc1 [Example 2-217]
50 to 500 nM | 4.5 nM |  |  | O=C(NC1CC1)c1ccc(-c2cnc3c(NCC4CCOCC4)cc(NC4CCCCC4O)nn23)cc1 (centres unmarked) [Example 2-70]
50 to 500 nM | 3.7 nM |  |  | CN(c1cc(NCC2CCOCC2)c2ncc(-c3ccc(C(=O)NC4CC4)cc3)n2n1)C1CCCC1 [Example 2-28]
 |  | 50 to 500 nM | 5.4 nM | O=C(NC1CC1)c1ccc(-c2cnc3c(NCC4CCOCC4)cc(OC4CCCC4)nn23)cc1 [Example 2-173]
50 to 500 nM | 4.5 nM |  |  | COC[C@@H]1CCCN1c1cc(NCC2CCOCC2)c2ncc(-c3ccc(C(=O)NC4CC4)cc3)n2n1 [Example 2-66]
 |  | 50 to 500 nM | 10.2 nM | O=C(NC1CC1)c1ccc(-c2cnc3c(NCC4CCOCC4)cc(OC4CCCCCC4)nn23)cc1 [Example 2-181]
50 to 500 nM | 5.6 nM |  |  | O=C(NC1CC1)c1ccc(-c2cnc3c(NCC4CCOCC4)cc(NC4CCC4)nn23)cc1 [Example 2-25]

— patent US20120059162A1, “FUSED IMIDAZOLE DERIVATIVE HAVING TTK INHIBITORY ACTION” (Oncotherapy Science, Inc., priority 2009, published 2012)
